Measured values from patent publication US20250296922A1, “POLYSUBSTITUTED PYRROLIDINE DERIVATIVE, PREPARATION METHOD THEREFOR AND USE THEREOF” (SHANGHAI WENNAI THERAPEUTICS CO LTD, priority 2023, published 2025).
Like-named read-outs stand apart in the source and are kept apart here.

Tests used:
[1] = Stability of the compound in liver microsomes (human); format: in vitro ADME; details: 1 μM compound, 0.5 mg protein/mL; for Human liver microsomes T½ / half-life at 1 μM: 37° C.; for half-life at 1 μM: human, liver microsomes, read-out: Human liver microsomes T½
Procedure: (§1) 2.1.1. working solution: 5 μL of test or control compound stock solution (10 mM DMSO solution) was diluted with 495 μL of acetonitrile (ACN) to obtain an intermediate stock solution (100 μM, 99% ACN).
(§2) 2.2.2 Preparation procedure: An appropriate amount of NADPH powder was weighed and diluted with 10 mM MgCl2 buffer (working solution concentration: 10 mM; final reaction system concentration: 1 mM).
(§3) 2.3.2 Preparation procedure: The appropriate concentration of liver microsomal working solution was prepared in 100 mM potassium phosphate buffer;
(§4) Acetonitrile (ACN) solution at 4° C. containing 200 ng/mL of Tolbutamide and 200 ng/ml of labetalol as internal standards 2.5. Operation steps:
(§5) 2.5.2. Diluting liver microsomes with 100 mM potassium phosphate buffer to a concentration of 0.56 mg/mL.
(§6) 2.5.3. Transferring 445 μL of liver microsomal working solution (0.56 mg/mL) to pre-heated incubation plates T60 and NCF60, and then pre-heating the incubation plates T60 and NCF60 for 10 minutes at 37° C. with shaking. Transferring 54 μL of liver microsomes to each well of the blank plate, adding 6 μL of NAPDH coenzyme solution to the blank plate, and finally transferring 180 μL of termination solution to the blank plate.
(§7) 2.5.4 Adding 5 μL of compound working solution (100 μM) to the incubation plates T60 and NCF60 containing liver microsomes and mixing three times.
(§8) 2.5.5. Adding 50 μL of buffer to the NCF60 plate and mixing three times, starting the timer and incubating at 37° C. for 60 min with the plate shaking.
(§9) 2.5.6. Adding 180 μL of quenching solution and 6 μL of NAPDH coenzyme working solution sequentially to quenching plate TO, making sure that the plate was cold to prevent volatilization of the incubation solution.
(§10) 2.5.7. For plate T60, mixing well three times and immediately transferring 54 μL of mixing solution (0-min time point) to quenching plate TO, then adding 44 μL of NAPDH coenzyme working solution to incubation plate T60. Starting the timer:
(§11) 2.5.8. At the 5, 15, 30, 45 and 60 minute time points, adding 180 μL of quenching solution to the quenching plate and transferring 60 μL of reaction solution from the T60 plate to the quenching plate at each time point.
(§12) 2.5.9. For NCF60 plates, mixing well and transferring 60 μL of reaction solution from the NCF60 incubating solution to a quenching plate containing 180 μL of quenching solution at 60th minute.
(§13) 2.5.10. All plates were mixed on a shaker for 10 min and then centrifuged at 4000 rpm at 4° C. for 20 min.
(§14) 2.5.11. Transferring 80 μL of supernatant to 240 μL of HPLC water and mixing on a
(§15) 2.6.1. Calculating t1/2 and Clint (mic) values based on first-order elimination kinetics: […]

[2] = Stability of the compound in liver microsomes (mouse); format: in vitro ADME, CD-1 mouse; details: 1 μM compound, 0.5 mg protein/mL; for Mouse liver microsomes T½ / half-life at 1 μM: 37° C.; for half-life at 1 μM: CD-1, mouse, liver microsomes, read-out: Mouse liver microsomes T½
Procedure: as §1, §2, §3, §4, §5, §6, §7, §8, §9, §10, §11, §12, §13, §14, §15

CYP3A-M = CYP3A-M (Homo sapiens, UniProt P08684); test: Human liver microsomal CYP inhibition test, CYP3A-M (midazolam); format: in vitro ADME; details: human liver microsomes 0.2 mg/mL; substrate Midazolam
Sequence of CYP3A-M (P08684 2-503 limits assumed): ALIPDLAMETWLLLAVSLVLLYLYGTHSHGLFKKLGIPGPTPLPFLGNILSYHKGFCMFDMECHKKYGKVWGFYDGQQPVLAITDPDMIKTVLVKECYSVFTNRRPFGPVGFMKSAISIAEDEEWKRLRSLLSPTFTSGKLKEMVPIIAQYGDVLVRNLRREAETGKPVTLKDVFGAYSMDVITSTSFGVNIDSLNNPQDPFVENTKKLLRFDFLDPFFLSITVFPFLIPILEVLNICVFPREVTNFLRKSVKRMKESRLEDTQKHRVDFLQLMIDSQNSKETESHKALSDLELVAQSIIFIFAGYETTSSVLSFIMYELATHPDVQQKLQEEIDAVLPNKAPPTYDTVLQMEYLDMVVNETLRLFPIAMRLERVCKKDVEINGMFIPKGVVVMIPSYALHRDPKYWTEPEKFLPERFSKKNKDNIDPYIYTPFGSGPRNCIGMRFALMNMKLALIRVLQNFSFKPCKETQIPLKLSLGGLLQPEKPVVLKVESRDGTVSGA
Procedure: (§16) 3.1 Buffer solutions: (1) potassium phosphate 100 mM; (2) magnesium chloride, 33 mM;
(§17) 3.2.3 Reservoir for compounds to be tested: Dissolving the compounds to be tested in DMSO to form a 10 mM DMSO solution.
(§18) 3.4.1 Preparation of human liver microsomal working solution (1.27×) (final concentration: 0.2 mg/mL)
(§19) 3.5.3 Adding 20 μL of substrate solution to the appropriate wells and 20 μL of potassium phosphate buffer to the blank wells;
(§20) 3.5.4 Adding 2 μL of different concentrations of target compounds (final concentrations from 0.05 μM to 50 μM, 7 concentrations in total) or standard inhibitors to each well, with 2 μL of methanol solution in the non-inhibitor and blank wells;
(§21) 3.5.5 Adding 1.012 mL of liver microsomes to 78.988 mL of potassium phosphate buffer, then adding 158 μL of liver microsomes solution to all wells; preheating the well plate for 10 minutes in a 37° C. water bath;
(§22) 3.5.6 Weighing 129.1 mg NADPH (purchased from SyncoZymes Co. Ltd.) and adding to 15.0 mL of 33 Mm MgCl2 solution to give a 10 mM concentration, adding 20 μL to each well;
(§23) 3.5.7 Mixing and incubating the well plate in a 37° C. water bath for 10 minutes, then adding 400 μL of cold termination solution at the appropriate time point;
(§24) 3.5.8 Centrifuging the sample at 4000 rpm for 20 minutes to precipitate the protein. Transferring 200 μL of supernatant to 100 μL of HPLC water and shaking for 10 minutes. The samples were analyzed by LC/MS/MS;
(§25) Percentage inhibition was plotted for blank control and different concentrations of target compounds by using XL fitting or SigmaPlot and the data were analyzed by non-linear regression. IC50 values were determined by using either 3-parameter or 4-parameter logistic equations.

CYP3A (printed CYP3A-M) = CYP3A (printed CYP3A-M) (Homo sapiens, UniProt P08684); test: as above; format: in vitro ADME
Sequence of CYP3A (printed CYP3A-M) (P08684 2-503 limits assumed): as above
Procedure: as §16, §17, §18, §19, §20, §21, §22, §23, §24, §25

Row | IC50 at 10 min (CYP3A (printed CYP3A-M); probe Midazolam, human liver microsomes 0.2 mg/mL, substrate Midazolam, read-out: IC50 (μM) CYP3A-M) [µM] | Molecule | Human liver microsomes T½ [1] [h] | Human liver microsomes Residual (T = 60 min) [1] [%] | Mouse liver microsomes T½ [2] [h] | Mouse liver microsomes Residual (T = 60 min) [2] [%] | IC50 (CYP3A-M) [µM] | half-life at 1 μM [1] [h] | half-life at 1 μM [2] [h] | IC50 at 10 min (CYP3A (printed CYP3A-M); human, microsomes) [µM]
1 | – | 4-((2R,3S,4S,5R)-3-(3,4-difluoro-2-(methoxy-d3)phenyl)-4,5-dimethyl-5-(trifluoromethyl) pyrrolidine-2-carboxamido)pyridinamide [Compound 11] | 1.59 | 60.1 | 1.24 | 52.9 | > 50 | – | – | –
2 | 30.9 | COc1c([C@H]2[C@H](C(=O)Nc3ccc[n+]([O-])c3)N[C@@](C)(C(F)(F)F)[C@H]2C)ccc(F)c1F [Compound 7, 3-((2R,3S,4S,5R)-3-(3,4-difluoro-2-methoxyphenyl)-4,5-dimethyl-5-(trifluoromethyl)pyrrolidine-2-carboxamido)pyridine 1-oxide] | – | 74.8 | – | 75.4 | – | > 2.42 | > 2.42 | –
3 | – | COc1c([C@H]2[C@H](C(=O)Nc3cccc(S(N)(=O)=O)c3)N[C@@](C)(C(F)(F)F)[C@H]2C)ccc(F)c1F [Compound 8, (2R,3S,4S,5R)-3-(3,4-difluoro-2-methoxyphenyl)-4,5-dimethyl-aza-(3-aminosulfonylphenyl)-5-(trifluoromethyl) pyrrolidine-2-carboxamide] | >2.42 | 80.3 | 1.51 | 62.9 | 26.2 | – | – | –
4 | – | COc1c([C@H]2[C@H](C(=O)Nc3ccnc(C(N)=O)c3)O[C@@](C)(C(F)(F)F)[C@H]2C)ccc(F)c1F [VX-548, reference compound] | – | 70.9 | – | 56.3 | – | 2.2 | 1.2 | > 50
